For assay [1], the target named is Disintegrin and metalloproteinase domain-containing protein 17 (Homo sapiens, UniProt P78536). The experiment in a line: exosite inhibitors of ADAM17, dose response, biochemical (AID 743260).
Assay [2] in a line: inhibition of ADAM10 peptide cleavage – biochemical, FRET peptide substrate, recombinant human ADAM10, selectivity assay for ADAM17 exosite inhibitor project, dose response (AID 743259).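 Further: ADAM10 enzyme cleaving a FRET peptide substrate.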
The target of a further assay is fMet-Leu-Phe receptor (Homo sapiens, UniProt P21462). As to the kind of experiment: formyl peptide receptor binders – dose response (AID 519). In kind it is functional.
Assay [3] deals with T1, Heat shock factor protein 1 (Mus musculus, UniProt P38532).
T1 sequence (P38532 whole entry): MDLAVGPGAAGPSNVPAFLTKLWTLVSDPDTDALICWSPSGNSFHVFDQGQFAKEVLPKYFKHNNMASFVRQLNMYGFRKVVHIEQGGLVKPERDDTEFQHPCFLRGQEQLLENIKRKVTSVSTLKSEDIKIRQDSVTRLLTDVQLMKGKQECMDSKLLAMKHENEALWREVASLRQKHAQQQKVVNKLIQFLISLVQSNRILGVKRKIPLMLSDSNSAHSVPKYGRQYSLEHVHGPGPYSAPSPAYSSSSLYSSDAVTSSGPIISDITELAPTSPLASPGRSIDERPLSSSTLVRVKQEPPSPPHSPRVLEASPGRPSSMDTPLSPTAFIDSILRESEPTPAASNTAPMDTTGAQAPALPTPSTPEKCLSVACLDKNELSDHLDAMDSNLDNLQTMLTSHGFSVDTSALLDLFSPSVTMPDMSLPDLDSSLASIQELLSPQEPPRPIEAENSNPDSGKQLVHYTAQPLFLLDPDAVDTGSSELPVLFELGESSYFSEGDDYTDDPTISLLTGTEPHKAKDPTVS
As to the kind of experiment: enhancement of HSF1-driven luciferase signal – cell-based, NIH3T3, luminescence, dose retest, confirmation (AID 435004).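 Further: stress induced by proteasome inhibitor MG132 added 30 min after compound; luciferase reporter driven by HSF1 response element in NIH3T3 cells; actives raise luminescence as potentiators of the MG132 stress response.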 Format: functional.

In assay [4] the target is COUP transcription factor 2 (Homo sapiens, UniProt P24468). The experiment in a line: Luminescence-based cell-based high throughput dose response assay to identify inhibitors of COUP-TFII (NR2F2). Format: functional.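 Further: HEK293 cells transiently cotransfected with COUP-TFII expression vector and reporter; luciferase reporter luminescence driven by COUP-TFII from the pX2-168 reporter plasmid.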
Assay [5] deals with T2, Mitochondrial peptide methionine sulfoxide reductase (Bos taurus, UniProt P54149).
T2 sequence (P54149 whole entry): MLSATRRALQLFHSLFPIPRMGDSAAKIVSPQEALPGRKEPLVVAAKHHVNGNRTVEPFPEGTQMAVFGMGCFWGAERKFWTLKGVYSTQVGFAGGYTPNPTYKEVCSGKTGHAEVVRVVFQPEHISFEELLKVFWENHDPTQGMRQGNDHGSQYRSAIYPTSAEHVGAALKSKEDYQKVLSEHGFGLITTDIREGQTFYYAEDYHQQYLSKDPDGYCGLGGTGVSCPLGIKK
As to the kind of experiment: Absorbance-based biochemical high throughput dose response assay for activators of Methionine sulfoxide reductase A (MsrA). Format: functional.

In assay [6] the target is SWI/SNF-related matrix-associated actin-dependent regulator of chromatin subfamily A member 2 (Homo sapiens, UniProt P51531). As to the kind of experiment: Luminescence-based cell-based high throughput dose response assay to identify activators of the function of SWI/SNF related, matrix associated, actin dependent regulator of chromatin, subfamily a, member 2 (SMARCA2, BRM). In kind it is functional.

The nature of assay [7]: Counterscreen for activators of the function of SWI/SNF related, matrix associated, actin dependent regulator of chromatin, subfamily a, member 2 (SMARCA2, BRM): Luminescence-based cell-based high throughput dose response assay to identify non-selective compounds using the VP16 reporter assay. In kind it is functional. (In general: The purpose of a counterscreen is to sort out artefacts and off-target activity.)

Assay [8] deals with T3, DNA repair protein RAD52 homolog (Homo sapiens, UniProt P43351).
T3 sequence (P43351 whole entry): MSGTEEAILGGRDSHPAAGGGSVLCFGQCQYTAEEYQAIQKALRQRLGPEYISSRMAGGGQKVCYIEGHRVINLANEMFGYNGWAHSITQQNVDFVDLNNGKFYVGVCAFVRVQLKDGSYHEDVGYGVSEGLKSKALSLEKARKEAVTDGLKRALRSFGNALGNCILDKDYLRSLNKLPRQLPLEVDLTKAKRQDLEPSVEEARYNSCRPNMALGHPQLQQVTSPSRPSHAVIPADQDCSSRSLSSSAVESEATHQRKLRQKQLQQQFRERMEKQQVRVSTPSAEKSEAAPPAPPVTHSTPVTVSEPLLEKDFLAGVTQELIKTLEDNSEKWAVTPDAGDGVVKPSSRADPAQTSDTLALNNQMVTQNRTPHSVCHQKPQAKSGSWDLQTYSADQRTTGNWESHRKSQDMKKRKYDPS
In kind it is functional, biochemical.

Assay [9] has as its system HEK293. The experiment in a line: cells. Conditions: Homo sapiens.
The subject of assay [10] is HEK293. The experiment in a line: cells. Conditions: Homo sapiens. This is another data set of the same source.
A further assay has as its system BHK-21. The experiment in a line: viability loss in BHK-21 cells – cell-based, plate reader, cherry-pick samples, cytotoxicity control, dose response (AID 687030). In kind it is functional. Conditions: Mesocricetus auratus.
The nature of assay [11]: TNFa-induced NF-kB reporter signal decrease – HEK293 LMP1 reporter cells, dry powder, set 2, selectivity assay for EBV LMP1 NF-kB inhibitor project, dose response (AID 624369). In kind it is functional.
Assay [12] is described as follows: inhibitors of EBV LMP1 NF-kappaB signaling – cell-based, luciferase reporter, luminescence, dry powder, set 2, dose response (AID 624376). Format: functional. (A reporter such as luciferase makes a cellular process visible.)
A short description of assay [13]: mouse embryonic fibroblast toxicity – cell-based, plate reader, dry powder, set 2, cytotoxicity control, dose response (AID 652280). Format: functional. The note with it: NIH3T3.
Assay [14] in a line: T. cruzi growth inhibition in host cells, dose response, cell-based, plate reader, dry powder, set 2 (AID 652275). In kind it is functional.
The nature of assay [15]: Trypanosoma cruzi replication inhibitors in host cells – cell-based, plate reader, dry powder samples, dose response (AID 651845). In kind it is functional.
Assay [16] can be described thus: mouse fibroblast viability loss – cell-based, dry powder samples, cytotoxicity control, dose response (AID 651844). Format: functional. The note with it: NIH3T3.
Assay [17] in a line: HGIII-sPLA2 enzyme inhibition potency – biochemical, QFRET, IC50, dose response (AID 743457).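 Further: green fluorescence rise as the enzyme cleaves BODIPY PC-A2 in liposomes.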

The source made the active and inactive calls. Bounds are passed on as bounds.

Disintegrin and metalloproteinase domain-containing protein 17, sequence (P78536 whole entry, the tested form may be a part): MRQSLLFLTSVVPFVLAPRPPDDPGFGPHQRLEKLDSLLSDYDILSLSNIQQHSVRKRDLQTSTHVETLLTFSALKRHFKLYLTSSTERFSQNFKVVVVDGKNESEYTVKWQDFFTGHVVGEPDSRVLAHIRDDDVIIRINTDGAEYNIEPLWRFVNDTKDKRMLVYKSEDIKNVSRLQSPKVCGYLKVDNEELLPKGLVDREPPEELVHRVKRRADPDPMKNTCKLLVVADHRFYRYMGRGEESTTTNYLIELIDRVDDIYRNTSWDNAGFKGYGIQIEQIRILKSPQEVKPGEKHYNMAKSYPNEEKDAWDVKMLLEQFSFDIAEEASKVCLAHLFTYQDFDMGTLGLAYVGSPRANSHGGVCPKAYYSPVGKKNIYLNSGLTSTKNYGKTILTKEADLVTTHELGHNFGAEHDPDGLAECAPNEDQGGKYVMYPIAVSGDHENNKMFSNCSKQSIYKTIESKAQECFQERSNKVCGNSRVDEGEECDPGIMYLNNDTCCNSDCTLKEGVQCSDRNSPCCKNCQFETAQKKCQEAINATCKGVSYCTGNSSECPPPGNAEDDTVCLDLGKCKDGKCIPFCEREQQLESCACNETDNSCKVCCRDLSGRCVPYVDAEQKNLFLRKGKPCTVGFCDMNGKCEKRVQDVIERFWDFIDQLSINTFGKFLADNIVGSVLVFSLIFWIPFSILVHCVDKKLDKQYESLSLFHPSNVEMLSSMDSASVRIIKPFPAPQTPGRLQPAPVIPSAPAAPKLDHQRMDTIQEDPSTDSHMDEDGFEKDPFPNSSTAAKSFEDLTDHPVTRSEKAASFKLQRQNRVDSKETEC
fMet-Leu-Phe receptor, sequence (P21462 whole entry): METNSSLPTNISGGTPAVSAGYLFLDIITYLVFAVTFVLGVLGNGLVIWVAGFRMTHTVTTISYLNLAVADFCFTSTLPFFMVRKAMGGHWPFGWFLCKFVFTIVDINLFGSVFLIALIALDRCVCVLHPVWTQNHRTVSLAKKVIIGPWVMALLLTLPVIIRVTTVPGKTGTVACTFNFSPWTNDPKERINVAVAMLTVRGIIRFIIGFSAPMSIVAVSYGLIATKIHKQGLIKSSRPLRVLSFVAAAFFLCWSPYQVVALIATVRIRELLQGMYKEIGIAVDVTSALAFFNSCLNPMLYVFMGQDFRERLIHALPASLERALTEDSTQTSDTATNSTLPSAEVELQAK
COUP transcription factor 2, sequence (P24468 whole entry): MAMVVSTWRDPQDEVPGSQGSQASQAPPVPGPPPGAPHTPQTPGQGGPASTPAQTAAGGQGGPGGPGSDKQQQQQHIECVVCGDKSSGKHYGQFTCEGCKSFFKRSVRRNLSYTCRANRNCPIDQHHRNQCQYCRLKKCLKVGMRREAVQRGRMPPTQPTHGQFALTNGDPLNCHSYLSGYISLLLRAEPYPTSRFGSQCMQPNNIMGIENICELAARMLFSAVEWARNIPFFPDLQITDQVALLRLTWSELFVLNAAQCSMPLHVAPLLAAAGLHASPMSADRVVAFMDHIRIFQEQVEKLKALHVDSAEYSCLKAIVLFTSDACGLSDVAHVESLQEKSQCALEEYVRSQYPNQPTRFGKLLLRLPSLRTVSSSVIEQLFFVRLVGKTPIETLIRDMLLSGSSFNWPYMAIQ
SWI/SNF-related matrix-associated actin-dependent regulator of chromatin subfamily A member 2, sequence (P51531 whole entry): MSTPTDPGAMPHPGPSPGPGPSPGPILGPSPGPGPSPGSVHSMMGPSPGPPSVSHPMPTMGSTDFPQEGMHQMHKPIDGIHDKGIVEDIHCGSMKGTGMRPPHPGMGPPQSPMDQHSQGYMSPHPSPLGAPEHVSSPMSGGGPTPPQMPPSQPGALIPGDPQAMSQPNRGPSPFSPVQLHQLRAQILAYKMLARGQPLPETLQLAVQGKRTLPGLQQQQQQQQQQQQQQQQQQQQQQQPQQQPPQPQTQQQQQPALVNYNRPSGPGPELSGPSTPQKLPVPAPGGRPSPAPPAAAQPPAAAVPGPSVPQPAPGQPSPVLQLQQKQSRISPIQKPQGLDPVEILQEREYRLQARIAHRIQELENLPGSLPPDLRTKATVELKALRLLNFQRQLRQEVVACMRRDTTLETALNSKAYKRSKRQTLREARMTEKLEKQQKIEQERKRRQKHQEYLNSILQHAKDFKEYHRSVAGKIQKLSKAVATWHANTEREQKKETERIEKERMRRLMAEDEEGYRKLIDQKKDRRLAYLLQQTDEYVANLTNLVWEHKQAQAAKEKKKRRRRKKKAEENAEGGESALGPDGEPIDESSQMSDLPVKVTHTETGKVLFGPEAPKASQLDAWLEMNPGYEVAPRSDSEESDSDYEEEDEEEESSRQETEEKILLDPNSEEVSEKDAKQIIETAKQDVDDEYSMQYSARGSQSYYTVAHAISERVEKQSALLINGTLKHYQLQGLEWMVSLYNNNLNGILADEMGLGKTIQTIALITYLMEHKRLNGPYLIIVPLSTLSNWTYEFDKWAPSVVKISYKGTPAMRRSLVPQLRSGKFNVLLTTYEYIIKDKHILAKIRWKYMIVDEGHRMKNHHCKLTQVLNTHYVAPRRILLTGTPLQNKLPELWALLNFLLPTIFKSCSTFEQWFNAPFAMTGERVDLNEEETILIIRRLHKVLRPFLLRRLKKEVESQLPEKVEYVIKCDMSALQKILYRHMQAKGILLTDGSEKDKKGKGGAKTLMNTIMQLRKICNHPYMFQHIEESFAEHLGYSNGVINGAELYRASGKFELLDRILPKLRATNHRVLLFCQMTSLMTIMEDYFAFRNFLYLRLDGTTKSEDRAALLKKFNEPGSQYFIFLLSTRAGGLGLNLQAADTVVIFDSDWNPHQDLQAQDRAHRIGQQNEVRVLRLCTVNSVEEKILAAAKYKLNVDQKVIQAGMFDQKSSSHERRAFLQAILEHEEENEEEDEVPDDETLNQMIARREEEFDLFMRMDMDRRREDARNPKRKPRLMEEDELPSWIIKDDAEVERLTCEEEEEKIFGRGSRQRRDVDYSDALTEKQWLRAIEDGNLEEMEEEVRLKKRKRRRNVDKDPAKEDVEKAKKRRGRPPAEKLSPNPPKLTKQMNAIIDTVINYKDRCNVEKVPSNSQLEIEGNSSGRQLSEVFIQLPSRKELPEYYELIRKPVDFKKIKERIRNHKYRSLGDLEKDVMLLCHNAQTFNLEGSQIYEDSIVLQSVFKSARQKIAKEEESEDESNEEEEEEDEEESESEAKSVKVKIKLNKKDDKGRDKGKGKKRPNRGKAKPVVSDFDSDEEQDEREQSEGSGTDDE

Usually IC50 stands for the concentration that inhibits the measured activity by half. `COC(=O)C1=C(C)N(Cc2cccc(C(F)(F)F)c2)C(NCc2ccc3c(c2)OCO3)=NC1c1ccc(F)cc1` (centres undefined): the IC50 in assay [1] and in [2] was > 69.5 µM (inactive) throughout.
The term Ki denotes a dissociation constant, usually derived from enzyme kinetics or from competition with a known ligand. With `CCCC(=O)Nc1cc(-c2cn3cccnc3n2)ccc1OC`, at fMet-Leu-Phe receptor, the Ki is > 66.7 µM (inactive).
As a reminder, the EC50 is the concentration giving half of the maximal effect. Take `Cc1ccc(-n2nc3c(=O)n(C(C)C(=O)NCc4ccccc4Cl)nc(C)c3c2C)cc1` (centres undefined): in [3], the EC50 was > 260 µM (inactive). The IC50 in assay [4] is 11.9 µM (inactive).
What is called AC50 is the concentration giving half of the maximal activity seen. Take `COc1ccc(OC)c2nc3c(C(=O)NCCN(C)C)cccc3nc12`: the EC50 was 46.5 µM (inactive) in assay [5]; 10.2 µM (inactive) in assay [6]; > 91.1 µM (inactive) in assay [7]; > 6.63 µM (active) in the assay with HEK293 [9]; > 59.7 µM (inactive) in the assay with HEK293 [10]. Also, the AC50 in assay [8] is 0.59 µM (active).
With `CCN(CC)CC(=O)N1CCCC(N2CCN(c3cccc(C(F)(F)F)c3)CC2)C1` (centres undefined), the AC50 in the assay on BHK-21 was 33.4 µM (active).
As to `COc1ccc(S(=O)(=O)N(C)C[C@@H]2Oc3ncc(/C=C/c4ccccc4)cc3C(=O)N([C@@H](C)CO)C[C@H]2C)cc1`, the AbsAC35 came out at 77.19 µM in assay [11] and 47.67 µM in [12].
For the molecule `CC(C)N1C[C@H](C)[C@@H](CN(C)Cc2ccc(Oc3ccccc3)cc2)Oc2c(NC(=O)C3CCNCC3)cccc2C1=O`, the AC50 was 8.99 µM (active) in assay [13], 0.983 µM (active) in assay [14], 0.983 µM (active) in [15] and 8.99 µM (active) in assay [16].
For `Sc1nnc(COc2ccccc2)n1-c1ccc(Cl)cc1`, the IC50 in assay [17] was > 122 µM (inactive).

These data come from ChEMBL document CHEMBL1201862, “PubChem BioAssay data set” (2004).
